Reference: patent US9635859B2, “Pesticidal compositions and processes related thereto” (Dow AgroSciences LLC, priority 2012, dated 2017)

What was measured:
Assay type in all cases: in vivo
[1] = tested on: Corn Earworm (Helicoverpa zea); test: Bioassays on CEW, 128-well diet tray assay; conditions: percent mortality, second instar larvae, 50 μg/cm^2 on artificial diet, five to seven days, 25° C.; Table 3
Procedure: (§1) Certain molecules disclosed in this document were tested against BAW and CEW and CL using procedures described in the following examples. In the reporting of the results, the “BAW & CEW & CL Rating Table” was used (See Table Section).
Bioassays on CEW (Helicoverpa zea)
Bioassays on CEW were conducted using a 128-well diet tray assay. one to five second instar CEW larvae were placed in each well (3 mL) of the diet tray that had been previously filled with 1 mL of artificial diet to which 50 μg/cm^2 of the test compound (dissolved in 50 μL of 90:10 acetone-water mixture) had been applied (to each of eight wells) and then allowed to dry. Trays were covered with a clear self-adhesive cover, and held at 25° C., 14:10 light-dark for five to seven days. Percent mortality was recorded for the larvae in each well; activity in the eight wells was then averaged. The results are indicated in the table entitled “Table 3: Assay Results” (See Table Section).

[2] = tested on: Cabbage Looper (Trichoplusia ni); test: Bioassays on CL, 128-well diet tray assay; conditions: percent mortality, second instar larvae, 50 μg/cm^2 on artificial diet, five to seven days, 25° C.; Table 3A
Procedure: as §1
Bioassays on CL (Trichoplusia ni)
Bioassays on CL were conducted using a 128-well diet tray assay. One to five second instar CL larvae were placed in each well (3 mL) of the diet tray that had been previously filled with 1 mL of artificial diet to which 50 μg/cm^2 of the test compound (dissolved in 50 μL of 90:10 acetone-water mixture) had been applied (to each of eight wells) and then allowed to dry. Trays were covered with a clear self-adhesive cover, and held at 25° C., 14:10 light-dark for five to seven days. Percent mortality was recorded for the larvae in each well; activity in the eight wells was then averaged. The results are indicated in the table entitled “Table 3A: Assay Results” (See Table Section).

[3] = tested on: Beet Armyworm (Spodoptera exigua); test: Bioassays on BAW, 128-well diet tray assay; conditions: percent mortality, second instar larvae, 50 μg/cm^2 on artificial diet, five to seven days, 25° C.; Table 3
Procedure, shortened: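 Second-instar larvae (one to five per well) were placed on artificial diet surface-treated with 50 μg/cm^2 compound in acetone-water and held at 25 °C, 14:10 light-dark, for five to seven days. Percent mortality was averaged over eight wells.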

| SMILES | CL Rating [2] | BAW Rating [3] | also measured |
| --- | --- | --- | --- |
| O=C(NCc1ccc(/C=C/C(c2cc(Cl)c(Cl)c(Cl)c2)C(F)(F)F)cc1Cl)Oc1ccccc1Cl (centres unmarked) [CC40] |  |  | CEW Rating [1]: A (50-100) |
| CCNC(=O)N(C)NC(=O)c1ccc(/C=C/C(c2cc(Cl)c(Cl)c(Cl)c2)C(F)(F)F)cc1Br (centres unmarked) [Compound F1, (E)-2-(2-Bromo-4-(4,4,4-trifluoro-3-(3,4,5-trichlorophenyl)but-1-en-1-yl)benzoyl)-N-ethyl-1-methylhydrazinecarboxamide] | A (50-100) |  |  |
| O=C(NCC(F)(F)F)NNC(=O)c1ccc(/C=C/C(c2cc(Cl)c(Cl)c(Cl)c2)C(F)(F)F)cc1Br (centres unmarked) [Compound F7, (E)-2-(2-Bromo-4-(4,4,4-trifluoro-3-(3,4,5-trichlorophenyl)but-1-en-1-yl)benzoyl)-N-(2,2,2-trifluoroethyl)hydrazinecarboxamide] | A (50-100) |  |  |
| C/C(=C\C(c1cc(Cl)cc(Cl)c1)C(F)(F)F)c1ccc(-n2cncn2)cc1 (centres unmarked) [DC68, (E)-1-(4-(4-(3,5-Dichlorophenyl)-5,5,5-trifluoropent-2-en-2-yl)phenyl)-1H-1,2,4-triazole] |  | A (50-100) |  |
| COC(/C=C/c1ccc(-n2cncn2)cc1)(c1cc(Cl)cc(Cl)c1)C(F)(F)F (centres unmarked) [DC70, (E)-1-(4-(3-(3,5-Dichlorophenyl)-4,4,4-trifluoro-3-methoxybut-1-en-1-yl)phenyl)-1H-1,2,4-triazole] |  | A (50-100) |  |
